We go through 1 substance from patent US20250059232A1, “PENTAPEPTIDE AND USE THEREOF” (ENSOL BIOSCIENCES INC., priority 2021, published 2025).

In series [1] the test system is 4T1 cells. Briefly: Syngeneic model implanted with paclitaxel-resistant 4T1 cells: tumor volume, Western blot of cleaved PARP and LC3II. Format: in vivo, mouse. To be noted: for Reduction in tumor volume compared to the group administered with only paclitaxel: Balb/c mice, 3 weeks; for Increase in cleaved PARP expression level in tumor compared to paclitaxel-only group / Reduction in LC3II expression level in tumor compared to paclitaxel-only group: Western blot after 3-week administration. The method, then: Cell death and autophagy marker changes were determined by the Western blot method, using a syngeneic model implanted with 4T1 cells (American Type Culture Collection (ATCC)), which are mouse triple negative breast cancer tumor cells resistant to paclitaxel. The drug administration was started, when the tumor volume was reached to 70 mm^3 after a fat pad of Balb/c mice (6 weeks old, female) was transplanted with 4T1 cells in a concentration of 1×10^6 cells/head. For Week 1, paclitaxel 20 mg/kg was administered on Day 1 and Day 2, and the peptide (10, 100 mg/kg) of Example 1 was co-administered on Day 3, Day 5, and Day 7. In addition, the same process was performed for each of Week 2, and Week 3 (n=3). The tumor volumes were measured daily because the tumors grew very quickly. The changes in cleaved PARP, which is a cell death marker, and the changes in LC3II, which is an autophagy marker, in tumors were analyzed after necropsy on the day after the end of the 3-week administration, by a Western blot test.
FIG. 5 is a graph illustrating the results of tumor volume measurements according to the number of days after treatment in animal experimentation. In FIG. 5, the x-axis represents the number of days elapsed after treatment and the y-axis represents the tumor volume change (mm^3).
In addition, the changes in cleaved PARP, which is a cell death marker, are shown in FIG. 6, and the changes in LC3II, which is an autophagy marker, are shown in FIG. 7. FIG. 6 is a graph showing the changes in expression of cleaved PARP, which is a cell death marker, for each treatment group in animal experimentation, and FIG. 7 is a graph showing the changes in expression of LC3II, which is an autophagy marker, for each treatment group in animal experimentation.
For orientation: Immunoblotting shows a protein as a band on a membrane.

For series [2], the system named is EL4. Briefly: EL4 cell viability (CCK-8) with doxorubicin. Particulars: 300 uM with doxorubicin 20 nM; 24 hours; p<0.05. Format: cell-based, mouse. The method, then: In order to investigate the cell viability by the combined administration of doxorubicin and the peptide of Example 1 compared to the group administered with only doxorubicin, which is an anticancer chemotherapeutic agent, experiments described below were conducted. 8×10^3 Cells of the mouse lymphoma cell line EL4 (ATCC) were seeded in 96 wells, which then were treated with doxorubicin 20 nM and peptide 300 uM of Example 1 for each condition. After 24 hours of culturing, the cell viability of the EL4 cells was measured by CCK-8 addition. FIG. 11 is a graph illustrating the changes in EL4 cell viability over culturing time in an anticancer effect evaluation test. In FIG. 11, the x-axis represents culturing time and the y-axis represents cell viability (%).

The test system of series [3] is PC3. Briefly: PC3 cell viability (CCK-8) in NK92 co-culture with anti-PD-L1. Format: cell-based, human. Particulars: 300 uM with 10 ug/ml anti-PD-L1, 24/48/72 hours of co-culturing. Here is the method: The experiment described below was performed to evaluate the tumor cell proliferation inhibitory effect of the combination treatment of the peptide of Example 1 and the anti-PD-L1, which is an immune checkpoint inhibitor. First, 5×10^3 cells of a human prostate cancer cell line PC3, 5×10^3 cells of a human lung cancer cell line A549 (Korean Cell Line Bank), and 1×10^4 cells of a human triple negative breast cancer cell line MDA-MB-231 (ATCC) were seeded in 96 wells and stabilized by culturing overnight. Then, the seeded cells were treated with 10 ug/ml of the anti-PD-L1 and 300 uM of the peptide of Example 1, for each condition while NK92 cells for 5×10^3 cells of each of the PC3 cell line and the MDA-MB-231 cell line and 2.5×10^3 cells of the A549 cell line were additionally seeded. After 24/48/72 hours of co-culturing (for PC3 and MDA-MB-231) and 24/48 hours of co-culturing (for A549), the NK92 cells were removed by washing, and the cancer cell viability was measured by CCK-8 addition. FIG. 15 is a graph illustrating the changes in PC3 cell viability over culturing time for each test group in an anticancer effect evaluation test. In FIG. 15, the x-axis represents culturing time and the y-axis represents cell viability (%). FIG. 16 is a graph illustrating the changes in A549 cell viability over culturing time for each test group in an anticancer effect evaluation test. […]

Series [4] can be described thus: 4-week repeated subcutaneous toxicity test in rats. Format: in vivo, rat. The method, then: Ten female and male rats were administered the pentapeptide of Example 1 subcutaneously at doses of 500, 1000, 2000 mg/kg daily for 4 weeks to investigate toxicity, and a safety evaluation test was performed. Specifically, general symptom observation, body weight measurement, feed consumption measurement, ophthalmological examination, and urinary examination were performed. After the end of the observation period, hematology and clinical biochemistry test, organ weight measurement, visual examination at autopsy, and histopathological examination were performed. […] Synthesizing the results described above, the no observed adverse effect level (NOEAL) for female and male was determined to be greater than or equal to 2,000 mg/kg/day when the pentapeptide of Example 1 was administered repeatedly subcutaneously to the rats for 4 weeks.

A short description of series [5]: 4-week repeated subcutaneous toxicity and toxicokinetic test in beagle dogs. It counts as in vivo, beagle dog. The method, then:
In addition, 3 female and male beagle dogs were used per group to repeatedly subcutaneously administer the pentapeptide of Example 1 at doses of 40, 120, 400 mg/kg for 4 weeks daily. During the test period, general symptom observation, weight and feed intake measurements, ophthalmological examination, electrocardiogram, urinalysis, hematology and clinical biochemistry test, and toxicokinetic examination were performed. In addition, organ weight measurements, visual inspection, and histopathological examination of autopsy subjects were performed. […] Thus, the NOAEL (No Observed Adverse Effect Level) of the pentapeptide of Example 1 for female and male beagle dogs under the presented test conditions is determined to be 400 mg/kg/day.

The mark [6] stands for this setting: 10 mg/kg co-administered with paclitaxel.
Where [7] appears, read: 100 mg/kg co-administered with paclitaxel, p<0.05.
[8] abbreviates: 500, 1000, 2000 mg/kg subcutaneous daily for 4 weeks.
The mark [9] stands for this setting: 40, 120, 400 mg/kg subcutaneous daily for 4 weeks.

What is called NOAEL is the highest tested level that showed no adverse finding.

Consider Ac-QLHLD-OH [Example 1, acetyl-QLHLD], for which the “Reduction in tumor volume compared to the group administered with only paclitaxel” value worked out at 20% in series [1] (10 mg/kg co-administered with paclitaxel 20 mg/kg) and 40% in series [1] (100 mg/kg co-administered with paclitaxel 20 mg/kg). Moreover, the “Increase in cleaved PARP expression level in tumor compared to paclitaxel-only group” value in series [1] (setting [6]) worked out at 2 fold; in series [1] (setting [7]) it was 3 fold. The “Reduction in LC3II expression level in tumor compared to paclitaxel-only group” value in series [1] (setting [6]) is 38%; in series [1] (setting [7]), 86%. Moreover, the “Cancer cell viability compared to the group treated with only doxorubicin” value in series [2] is reported as “significant decrease in cancer cell viability”. For the same substance, the “Cancer cell viability compared to the group treated with only anti-PD-L1” value in series [3] is given as “significant decrease in cancer cell viability”. The “Adverse findings related to the pentapeptide” value in series [4] (setting [8]) is “no adverse findings”. Also, the Deaths result in series [4] (setting [8]) was “no deaths occurred”; in series [5] (setting [9]), “no deaths were observed”. Also, in series [4] (female and male, subcutaneous, daily for 4 weeks), the “No observed adverse effect level (NOEAL)” value is recorded as “greater than or equal to 2,000 mg/kg/day”. The “Abnormalities (body weight, feed intake, ophthalmic examination, electrocardiogram, urinalysis, hematology, clinical biochemistry, necropsy, organ weight)” value in series [5] (setting [9]) is given as “No abnormalities”. For the same substance, the “Systemic exposure (AUClast, Cmax), dose dependence” value in series [5] (Day 1 and Day 28, 40, 120, 400 mg/kg) is “approximately proportionally increased with increase in the dose”. In addition, the Accumulation entry in series [5] (Day 1 vs Day 28) is reported as “no pentapeptide accumulation”. Moreover, in series [5] (both sexes, dog, in vivo, sc, female and male, subcutaneous, daily for 4 weeks, read-out: NOAEL (No Observed Adverse Effect Level)), the NOAEL at 4 weeks was 400 mg/kg/day.
